The text below walks through data of patent publication US9079902B2, “Heteroaryl sodium channel inhibitors” (AMGEN INC., priority 2011, dated 2015).

pIC50: −log10 of the molar value. Structures can show the parent of a compound that is named as a salt.

One may read the pIC50 as the IC50 on a negative log10 scale, so that one unit is a factor of ten. A low value points to a large IC50. A word on the inhibition: it is the drop in the measured response relative to a control, in per cent. Read a high inhibition as strong suppression.

One series concerns the target Nav 1.7 (Homo sapiens (Human), UniProt Q15858). As to the kind of experiment: Nav 1.7 in vitro assay (IonWorks Quattro population patch-clamp). Conditions: 293 cells stably transfected with Nav 1.7; for pIC50: 26th pulse to -20 mV, 5 Hz; for inhibition at 4.9 µM: HEK293. The format is cell-based. The method, then: (§1) Nav 1.7 and Nav 1.5 In Vitro Assay
(§2) 293 cells stably transfected with either Nav 1.7 or with Nav 1.5 were recorded in population patch-clamp mode with the IonWorks® Quattro automated electrophysiology system in accordance with the manufacturer's specifications (Molecular Devices, LLC, Sunnyvale, Calif.). Sodium channel currents were measured in response to a train of depolarizations that induced successively greater inactivation.
(§3) Cells were held at −110 mV for three seconds (Nav 1.7) or half a second (Nav 1.5) from a holding voltage of −15 mV, then put through a series of 26 pulses of 150 msec duration to −20 mV at a frequency of 5 Hz. Cells were then left unclamped for a period of 3 to 8 minutes while a single concentration of test compound was added. Cells were then reclamped and put through the same voltage protocol. Current at the end of the 26th pulse to −20 mV was subtracted from the peak current evoked by the 26th pulse to −20 mV to correct for leak current. Percent block was calculated for each concentration in duplicate, and IC50 curves were fitted to percent block as a function of concentration.
Background: In patch-clamp work, channel activity is measured electrically.

The target in another series is Nav 1.5 (Homo sapiens (Human), UniProt Q14524). Description: Nav 1.5 in vitro assay (IonWorks Quattro population patch-clamp). The format is cell-based. The following applies: 293 cells stably transfected with Nav 1.5; 26th pulse to -20 mV, 5 Hz. The method, then: as §1, §2, §3
Chain of Nav 1.5 (Q14524 whole entry): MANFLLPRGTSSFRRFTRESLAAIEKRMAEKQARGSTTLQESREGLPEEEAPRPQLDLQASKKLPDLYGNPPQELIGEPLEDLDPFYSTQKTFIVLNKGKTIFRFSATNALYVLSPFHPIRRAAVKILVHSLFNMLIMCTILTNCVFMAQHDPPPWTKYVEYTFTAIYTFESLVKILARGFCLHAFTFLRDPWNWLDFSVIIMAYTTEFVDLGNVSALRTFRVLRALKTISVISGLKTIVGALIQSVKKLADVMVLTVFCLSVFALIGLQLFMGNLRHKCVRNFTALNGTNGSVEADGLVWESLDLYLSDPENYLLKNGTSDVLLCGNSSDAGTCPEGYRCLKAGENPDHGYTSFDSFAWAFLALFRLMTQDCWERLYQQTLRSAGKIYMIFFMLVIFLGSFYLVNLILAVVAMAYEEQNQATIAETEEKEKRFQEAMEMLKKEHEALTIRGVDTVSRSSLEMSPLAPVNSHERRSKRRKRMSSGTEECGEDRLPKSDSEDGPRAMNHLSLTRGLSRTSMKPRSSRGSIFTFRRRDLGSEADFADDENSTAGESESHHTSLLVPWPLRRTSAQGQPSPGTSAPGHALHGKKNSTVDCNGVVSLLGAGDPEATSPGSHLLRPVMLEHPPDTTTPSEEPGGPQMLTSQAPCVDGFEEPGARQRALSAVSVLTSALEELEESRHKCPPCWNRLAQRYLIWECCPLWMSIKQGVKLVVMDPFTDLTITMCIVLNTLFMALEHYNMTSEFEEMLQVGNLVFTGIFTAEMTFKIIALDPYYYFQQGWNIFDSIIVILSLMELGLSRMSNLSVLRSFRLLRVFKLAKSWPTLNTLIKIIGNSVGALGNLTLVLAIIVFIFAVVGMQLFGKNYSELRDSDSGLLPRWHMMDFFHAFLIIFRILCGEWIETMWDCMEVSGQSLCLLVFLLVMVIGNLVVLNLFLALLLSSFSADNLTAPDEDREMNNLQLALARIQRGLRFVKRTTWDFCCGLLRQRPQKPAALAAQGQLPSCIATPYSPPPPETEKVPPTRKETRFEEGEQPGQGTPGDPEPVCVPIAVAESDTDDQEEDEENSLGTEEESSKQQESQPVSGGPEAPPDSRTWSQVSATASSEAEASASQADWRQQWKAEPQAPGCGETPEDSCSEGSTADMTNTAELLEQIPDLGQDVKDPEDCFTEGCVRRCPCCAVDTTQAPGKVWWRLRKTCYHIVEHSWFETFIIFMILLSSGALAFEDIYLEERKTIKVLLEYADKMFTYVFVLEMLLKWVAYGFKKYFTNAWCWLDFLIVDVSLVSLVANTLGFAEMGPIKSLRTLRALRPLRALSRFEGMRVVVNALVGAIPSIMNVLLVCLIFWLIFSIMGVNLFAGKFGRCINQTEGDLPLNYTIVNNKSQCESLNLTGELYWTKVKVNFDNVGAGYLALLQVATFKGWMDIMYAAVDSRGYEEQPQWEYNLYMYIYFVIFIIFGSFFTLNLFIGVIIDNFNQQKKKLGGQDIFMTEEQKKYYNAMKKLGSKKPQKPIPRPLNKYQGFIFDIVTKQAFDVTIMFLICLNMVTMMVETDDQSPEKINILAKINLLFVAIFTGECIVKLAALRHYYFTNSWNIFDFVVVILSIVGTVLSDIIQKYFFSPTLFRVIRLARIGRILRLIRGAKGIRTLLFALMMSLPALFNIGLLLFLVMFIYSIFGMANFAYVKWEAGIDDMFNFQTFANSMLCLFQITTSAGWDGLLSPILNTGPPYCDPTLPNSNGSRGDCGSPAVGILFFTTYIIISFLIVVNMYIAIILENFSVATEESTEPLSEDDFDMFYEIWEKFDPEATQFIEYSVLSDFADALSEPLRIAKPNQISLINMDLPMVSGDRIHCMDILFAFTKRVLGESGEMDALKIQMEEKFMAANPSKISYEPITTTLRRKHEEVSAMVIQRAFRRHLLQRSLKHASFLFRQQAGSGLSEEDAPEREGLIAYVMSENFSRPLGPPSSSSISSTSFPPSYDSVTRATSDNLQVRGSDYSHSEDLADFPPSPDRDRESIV

Chain of Nav 1.7 (Q15858 whole entry): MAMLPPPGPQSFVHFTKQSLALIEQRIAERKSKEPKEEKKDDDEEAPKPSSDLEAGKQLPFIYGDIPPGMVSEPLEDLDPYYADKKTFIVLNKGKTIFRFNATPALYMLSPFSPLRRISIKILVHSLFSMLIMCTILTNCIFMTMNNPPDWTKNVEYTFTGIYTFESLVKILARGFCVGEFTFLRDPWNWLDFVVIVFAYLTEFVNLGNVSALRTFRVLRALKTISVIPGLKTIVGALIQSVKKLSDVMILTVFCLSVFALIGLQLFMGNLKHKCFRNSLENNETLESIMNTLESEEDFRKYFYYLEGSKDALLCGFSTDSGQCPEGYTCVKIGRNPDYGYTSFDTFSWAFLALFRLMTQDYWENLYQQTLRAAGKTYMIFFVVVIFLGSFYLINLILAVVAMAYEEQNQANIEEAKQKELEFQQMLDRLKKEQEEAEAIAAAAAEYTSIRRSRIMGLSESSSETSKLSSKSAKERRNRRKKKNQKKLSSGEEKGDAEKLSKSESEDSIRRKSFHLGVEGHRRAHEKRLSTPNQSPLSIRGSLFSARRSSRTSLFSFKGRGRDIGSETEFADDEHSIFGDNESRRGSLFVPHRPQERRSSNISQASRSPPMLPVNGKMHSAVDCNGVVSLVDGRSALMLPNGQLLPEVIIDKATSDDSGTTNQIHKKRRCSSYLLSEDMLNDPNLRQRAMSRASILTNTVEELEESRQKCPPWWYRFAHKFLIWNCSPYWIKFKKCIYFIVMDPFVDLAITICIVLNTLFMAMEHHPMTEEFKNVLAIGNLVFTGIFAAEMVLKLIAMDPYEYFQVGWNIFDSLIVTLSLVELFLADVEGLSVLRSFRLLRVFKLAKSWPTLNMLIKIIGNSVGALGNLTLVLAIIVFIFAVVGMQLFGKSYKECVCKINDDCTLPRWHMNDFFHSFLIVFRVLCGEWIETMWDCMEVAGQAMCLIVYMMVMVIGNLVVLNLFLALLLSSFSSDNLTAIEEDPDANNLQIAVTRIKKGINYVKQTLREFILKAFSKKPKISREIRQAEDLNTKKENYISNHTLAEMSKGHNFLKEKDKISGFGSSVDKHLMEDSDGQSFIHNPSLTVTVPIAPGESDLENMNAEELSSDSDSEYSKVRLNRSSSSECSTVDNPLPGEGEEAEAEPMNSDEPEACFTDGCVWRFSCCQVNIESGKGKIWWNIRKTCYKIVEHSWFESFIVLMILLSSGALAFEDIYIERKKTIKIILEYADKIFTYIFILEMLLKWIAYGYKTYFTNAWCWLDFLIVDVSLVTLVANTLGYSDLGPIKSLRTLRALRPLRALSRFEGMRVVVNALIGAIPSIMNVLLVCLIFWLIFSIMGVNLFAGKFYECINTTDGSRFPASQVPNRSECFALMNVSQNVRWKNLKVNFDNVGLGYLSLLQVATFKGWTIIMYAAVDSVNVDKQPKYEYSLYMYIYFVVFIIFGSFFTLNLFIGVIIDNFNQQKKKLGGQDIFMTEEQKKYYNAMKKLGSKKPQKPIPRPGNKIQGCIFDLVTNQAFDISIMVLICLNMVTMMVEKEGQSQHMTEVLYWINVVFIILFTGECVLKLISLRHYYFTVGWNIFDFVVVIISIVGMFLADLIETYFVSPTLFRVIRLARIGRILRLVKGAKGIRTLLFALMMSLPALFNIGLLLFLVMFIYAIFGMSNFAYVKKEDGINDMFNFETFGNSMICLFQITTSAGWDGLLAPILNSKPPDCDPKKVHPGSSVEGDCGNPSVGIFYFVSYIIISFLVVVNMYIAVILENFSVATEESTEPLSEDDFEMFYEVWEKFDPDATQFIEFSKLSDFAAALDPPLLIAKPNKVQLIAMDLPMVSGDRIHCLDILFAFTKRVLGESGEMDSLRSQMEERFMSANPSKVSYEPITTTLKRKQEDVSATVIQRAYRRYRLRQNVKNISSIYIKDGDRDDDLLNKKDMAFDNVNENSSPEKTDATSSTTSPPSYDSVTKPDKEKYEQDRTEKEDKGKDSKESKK

On to `Cn1cc(-c2cccnc2)c2ccc(S(=O)(=O)Nc3ncns3)cc21` [Example 9, 1-Methyl-3-(Pyridin-3-yl)-N-(1,2,4-Thiadiazol-5-yl)-1H-Indole-6-Sulfonamide], for which the pIC50 was 5.77 on Nav 1.7 and less than 5.00 against Nav 1.5.

`Cn1cc(-c2cc(F)ccc2F)c2ccc(S(=O)(=O)Nc3ncns3)cc21` [Example 10, 3-(2,5-Difluorophenyl)-1-Methyl-N-(1,2,4-Thiadiazol-5-yl)-1H-Indole-6-Sulfonamide]: the pIC50 is 5.67 against Nav 1.7 and less than 5.00 against Nav 1.5.

Regarding `Cn1nccc1-c1cc(C(F)(F)F)ccc1-c1cn(C)c2cc(S(=O)(=O)Nc3nccs3)ccc12` [Example 11, 1-Methyl-3-(2-(1-Methyl-1H-Pyrazol-5-yl)-4-(Trifluoromethyl)Phenyl)-N-(Thiazol-2-yl)-1H-Indole-6-Sulfonamide], the pIC50 on Nav 1.7 is 5.50; against Nav 1.5, less than 5.00.

For the molecule `Cn1nccc1-c1cc(C(F)(F)F)ccc1-c1cn(C)c2cc(S(=O)(=O)Nc3ccncn3)ccc12` [Example 12, 1-Methyl-3-(2-(1-Methyl-1H-Pyrazol-5-yl)-4-(Trifluoromethyl)Phenyl)-N-(Pyrimidin-4-yl)-1H-Indole-6-Sulfonamide], the pIC50 against Nav 1.7 was 6.08; against Nav 1.5, less than 5.00.

With `Cn1nccc1-c1cc(C(F)(F)F)ccc1-c1cn(C)c2cc(S(=O)(=O)Nc3nncs3)ccc12` [Example 13, 1-Methyl-3-(2-(1-Methyl-1H-Pyrazol-5-yl)-4-(Trifluoromethyl)Phenyl)-N-(1,3,4-Thiadiazol-2-yl)-1H-Indole-6-Sulfonamide], the pIC50 on Nav 1.7 was 5.73; against Nav 1.5 it was less than 5.00.

As to `CC#Cc1cncc(-c2cn(C)c3cc(S(=O)(=O)Nc4ncns4)ccc23)c1` [Example 14, 1-Methyl-3-(5-(Prop-1-Yn-1-yl)Pyridin-3-yl)-N-(1,2,4-Thiadiazol-5-yl)-1H-Indole-6-Sulfonamide], the values for the pIC50 at Nav 1.7 and against Nav 1.5 were 5.48 and less than 5.00, respectively.

On to `Cn1cc(-c2cc(-c3ccncc3)cc(C(F)(F)F)c2)c2ccc(S(=O)(=O)Nc3ncns3)cc21` [Example 15, 1-Methyl-3-(3-(Pyridin-4-yl)-5-(Trifluoromethyl)Phenyl)-N-(1,2,4-Thiadiazol-5-yl)-1H-Indole-6-Sulfonamide], for which the pIC50 was 5.81 at Nav 1.7 and less than 5.00 against Nav 1.5.

For `Cn1cc(-c2ccc(C(F)(F)F)cc2C#N)c2ccc(S(=O)(=O)Nc3ncns3)cc21` [Example 16, 3-(2-Cyano-4-(Trifluoromethyl)Phenyl)-1-Methyl-N-(1,2,4-Thiadiazol-5-yl)-1H-Indole-6-Sulfonamide], the pIC50 at Nav 1.7 is 6.26; against Nav 1.5 it was less than 5.00.

For the molecule `Cn1cc(-c2cc(Br)cc(C(F)(F)F)c2)c2ccc(S(=O)(=O)Nc3ncns3)cc21` [Example 17, 3-(3-Bromo-5-(Trifluoromethyl)Phenyl)-1-Methyl-N-(1,2,4-Thiadiazol-5-yl)-1H-Indole-6-Sulfonamide], the negative logarithm of the IC50 (pIC50) on Nav 1.7 is 5.04; at Nav 1.5, less than 5.00.

Regarding `Cn1cc(-c2ccc(C(F)(F)F)cc2-c2ccncc2)c2ccc(S(=O)(=O)Nc3ncns3)cc21` [Example 18, 1-Methyl-3-(2-(Pyridin-4-yl)-4-(Trifluoromethyl)Phenyl)-N-(1,2,4-Thiadiazol-5-yl)-1H-Indole-6-Sulfonamide], the pIC50 against Nav 1.7 is 7.30; against Nav 1.5, less than 5.00.

For `Cn1cc(-c2ccc(C(F)(F)F)cc2-c2ccn(C3CNC3)n2)c2ccc(S(=O)(=O)Nc3ncns3)cc21` [Example 19, 3-(2-(1-(Azetidin-3-yl)-1H-Pyrazol-3-yl)-4-(Trifluoromethyl)Phenyl)-1-Methyl-N-(1,2,4-Thiadiazol-5-yl)-1H-Indole-6-Sulfonamide Hydrochloride], the pIC50 against Nav 1.7 was 6.58; against Nav 1.5, less than 5.00.

Consider `Cc1sc(NS(=O)(=O)c2ccc3c(-c4ccc(C(F)(F)F)cc4-c4ccnn4C)cn(C)c3c2)nc1C(F)(F)F` [Example 20, 1-Methyl-3-(2-(1-Methyl-1H-Pyrazol-5-yl)-4-(Trifluoromethyl)Phenyl)-N-(5-Methyl-4-(Trifluoromethyl)Thiazol-2-yl)-1H-Indole-6-Sulfonamide], for which testing at 4.9 µM at Nav 1.7 gave an inhibition of 36.2%. Also, the pIC50 against Nav 1.5 was less than 5.00.

With `Cn1cc(-c2ccc(C(F)(F)F)cc2-c2cn[nH]c2)c2ccc(S(=O)(=O)Nc3ncns3)cc21` [Example 21, 3-(2-(1H-Pyrazol-4-yl)-4-(Trifluoromethyl)Phenyl)-1-Methyl-N-(1,2,4-Thiadiazol-5-yl)-1H-Indole-6-Sulfonamide], the pIC50 against Nav 1.7 was 7.43; at Nav 1.5, less than 5.00.

For `Cn1cc(-c2ccc(C(F)(F)F)cc2C2=CCNCC2)c2ccc(S(=O)(=O)Nc3ncns3)cc21` [Example 22, 1-Methyl-3-(2-(1,2,3,6-Tetrahydropyridin-4-yl)-4-(Trifluoromethyl)Phenyl)-N-(1,2,4-Thiadiazol-5-yl)-1H-Indole-6-Sulfonamide], the pIC50 on Nav 1.7 is 7.37; against Nav 1.5, less than 5.00.

`Cn1cc(-c2ccc(C(F)(F)F)cc2Cl)c2ccc(S(=O)(=O)Nc3ncns3)cc21` [Example 23, 3-(2-Chloro-4-(Trifluoromethyl)Phenyl)-1-Methyl-N-(1,2,4-Thiadiazol-5-yl)-1H-Indole-6-Sulfonamide]: the pIC50 at Nav 1.7 was 6.16; against Nav 1.5 it was less than 5.00.

Regarding `Cn1nccc1-c1cc(C(F)(F)F)ccc1-c1c[nH]c2nc(S(=O)(=O)Nc3ncns3)ccc12` [Example 25, 3-(2-(1-Methyl-1H-Pyrazol-5-yl)-4-(Trifluoromethyl)Phenyl)-N-(1,2,4-Thiadiazol-5-yl)-1H-Pyrrolo[2,3-B]Pyridine-6-Sulfonamide], the results for the pIC50 against Nav 1.7 and against Nav 1.5 were 5.17 and 5.07, respectively.

For `Cn1nccc1-c1cc(C(F)(F)F)ccc1-c1cn(C)c2nc(S(=O)(=O)Nc3ncns3)ccc12` [Example 26, 1-Methyl-3-(2-(1-Methyl-1H-Pyrazol-5-yl)-4-(Trifluoromethyl)Phenyl)-N-(1,2,4-Thiadiazol-5-yl)-1H-Pyrrolo [2,3-B]Pyridine-6-Sulfonamide], the pIC50 is 5.99 against Nav 1.7 and less than 5.00 at Nav 1.5.

As to `CC(=O)n1cc(-c2ccc(C(F)(F)F)cc2-c2ccnn2C)c2ccc(S(=O)(=O)Nc3ncns3)nc21` [Example 27, 1-Acetyl-3-(2-(1-Methyl-1H-Pyrazol-5-yl)-4-(Trifluoromethyl)Phenyl)-N-(1,2,4-Thiadiazol-5-yl)-1H-Pyrrolo [2,3-B]Pyridine-6-Sulfonamide], the pIC50 at Nav 1.7 was 6.17; against Nav 1.5, less than 5.00.

As for `Cn1nccc1-c1cc(C(F)(F)F)ccc1-c1cn(C)c2cc(S(=O)(=O)Nc3nc(Br)ns3)ccc12` [Example 50, N-(3-Bromo-1,2,4-Thiadiazol-5-Yl)-1-Methyl-3-(2-(1-Methyl-1H-Pyrazol-5-Yl)-4-(Trifluoromethyl)Phenyl)-1H-Indole-6-Sulfonamide], the pIC50 at Nav 1.7 is 5.86; on Nav 1.5 it was less than 5.00.

Regarding `Cn1cc(-c2ccncc2Cl)c2ccc(S(=O)(=O)Nc3ncns3)cc21` [Example 51, 3-(3-Chloropyridin-4-Yl)-1-Methyl-N-(1,2,4-Thiadiazol-5-Yl)-1H-Indole-6-Sulfonamide], the values for the pIC50 against Nav 1.7 and on Nav 1.5 were 5.07 and less than 5.00, respectively.

For the molecule `Cn1cc(-c2cccc3c2CCNC3)c2ccc(S(=O)(=O)Nc3ncns3)cc21` [Example 53, 1-Methyl-3-(1,2,3,4-Tetrahydroisoquinolin-5-Yl)-N-(1,2,4-Thiadiazol-5-Yl)-1H-Indole-6-Sulfonamide Hydrochloride], the pIC50 against Nav 1.7 is 6.53; against Nav 1.5, less than 5.00.

Take `Cn1cc(-c2cccc3c2CNCC3)c2ccc(S(=O)(=O)Nc3ncns3)cc21` [Example 54, 1-Methyl-3-(1,2,3,4-Tetrahydroisoquinolin-8-Yl)-N-(1,2,4-Thiadiazol-5-Yl)-1H-Indole-6-Sulfonamide Hydrochloride]: the pIC50 against Nav 1.7 was 5.79; against Nav 1.5, less than 5.00.

As to `Cn1cc(-c2cnn(C3CC3)c2)c2ccc(S(=O)(=O)Nc3ncns3)cc21` [Example 55, 3-(1-Cyclopropyl-1H-Pyrazol-4-Yl)-1-Methyl-N-(1,2,4-Thiadiazol-5-Yl)-1H-Indole-6-Sulfonamide], the inhibition at 4.9 µM against Nav 1.7 worked out at 20.5%. The negative-log IC50 (pIC50) on Nav 1.5 is less than 5.00.

For `COc1cc(-c2cn(C)c3cc(S(=O)(=O)Nc4ncns4)ccc23)c(F)cn1` [Example 56, 3-(5-Fluoro-2-Methoxypyridin-4-Yl)-1-Methyl-N-(1,2,4-Thiadiazol-5-Yl)-1H-Indole-6-Sulfonamide], the inhibition at 4.9 µM on Nav 1.7 came to 20.8%. The pIC50 at Nav 1.5 was less than 5.00.

With `Cn1cc(-c2ccc(C(F)(F)F)cc2)c2ccc(S(=O)(=O)Nc3ncns3)cc21` [Example 57, 1-Methyl-N-(1,2,4-Thiadiazol-5-Yl)-3-(4-(Trifluoromethyl)Phenyl)-1H-Indole-6-Sulfonamide], the inhibition at 4.9 µM at Nav 1.7 amounted to 23.3%. At Nav 1.5, this molecule gave a pIC50 of less than 5.00.

Molecule `Cn1cc(-c2ccccc2OC(F)(F)F)c2ccc(S(=O)(=O)Nc3ncns3)cc21` [Example 58, 1-Methyl-N-(1,2,4-Thiadiazol-5-Yl)-3-(2-(Trifluoromethoxy)Phenyl)-1H-Indole-6-Sulfonamide] displayed an inhibition at 4.9 µM on Nav 1.7 of 25.1%. The pIC50 against Nav 1.5 is less than 5.00.
